Source: ChEMBL document CHEMBL3507680, “University of Dundee, Gates Library screen for HepG2 cell viability”

Assay: Human HepG2 cell viability assay in 384 well format
Format: toxicity, cell-based
Design: dose 125 nL, time 70.5 hour; concentration not given beside the values
Details: HepG2 cells, read-out: Inhibition

Structure (SMILES): CCN(Cc1nc(C(C)C)no1)Cc1cccs1
- cytotoxicity at 70.5 h: -10.8%

Structure (SMILES): Cc1noc(C)c1CN1CCC2(CC1)NC(=O)CC2c1ccccc1 (configuration not stated)
- cytotoxicity at 70.5 h: 2.78%

Structure (SMILES): Cc1nn2c(-c3cnn(C)c3)nnc2s1
- cytotoxicity at 70.5 h: -7.18%

Structure (SMILES): CSc1c[nH]nc1NS(=O)(=O)c1cc(F)ccc1C
- cytotoxicity at 70.5 h: -3.64%

Structure (SMILES): CN1CCC(N(CCc2ccccc2)C(=O)c2ccc(CO)cc2)CC1
- cytotoxicity at 70.5 h: -11.1%

Structure (SMILES): CCC(C)NC(=O)Cn1ncc2c1c(C)nn2CC (configuration not stated)
- cytotoxicity at 70.5 h: 22.8%

Structure (SMILES): Cc1ccc(S(C)(=O)=O)cc1C(=O)N1CCCC(n2cncn2)C1 (configuration not stated)
- cytotoxicity at 70.5 h: -3.44%

Structure (SMILES): CCCc1nnc(N2CCC(N3CCCCCC3)CC2)o1
- cytotoxicity at 70.5 h: -15.8%

Structure (SMILES): CC(C)NC(=O)CCNC(=O)Nc1cccc(-c2nccn2C)c1
- cytotoxicity at 70.5 h: -2.81%

Structure (SMILES): O=C(COc1coc(CN2CCCC2)cc1=O)NCc1ccccc1Cl
- cytotoxicity at 70.5 h: 3.62%

Structure (SMILES): CC(C)NC(=O)N1CCC2(CC1)Cc1ccccc1CNC2=O
- cytotoxicity at 70.5 h: -4.51%

Structure (SMILES): Cn1cc(C2=NOC(C(=O)NC3(c4ccccc4)CCCC3)C2)cn1 (configuration not stated)
- cytotoxicity at 70.5 h: -3.59%

Structure (SMILES): COCCCN(C)c1ncccc1I
- cytotoxicity at 70.5 h: 8.68%

Structure (SMILES): CC(=O)N1CCC(c2nnc3ccc(C(=O)NCC(C)C)cn23)C1 (configuration not stated)
- cytotoxicity at 70.5 h: -12.8%

Structure (SMILES): Cc1ncc(C(=O)N2CCCC(n3cccn3)C2)s1 (configuration not stated)
- cytotoxicity at 70.5 h: -11.8%

Structure (SMILES): COCCS(=O)(=O)NC(C)c1ccccc1Cl (configuration not stated)
- cytotoxicity at 70.5 h: -2.47%

Structure (SMILES): CCn1c(C)nnc1CN(C)C1CCN(CCCOC)C1 (configuration not stated)
- cytotoxicity at 70.5 h: 3.25%

Structure (SMILES): Cn1cc(NC(=O)N2CCC(Cc3ccccc3)CC2)ccc1=O
- cytotoxicity at 70.5 h: -2.61%

Structure (SMILES): Cc1nc(C)n(CC2CCCN2Cc2cn(-c3ccccc3)nn2)n1 (configuration not stated)
- cytotoxicity at 70.5 h: 2.44%

Structure (SMILES): CC1CN(C(=O)CN(Cc2ccccc2)C2CC2)CCO1 (configuration not stated)
- cytotoxicity at 70.5 h: -9.67%

Structure (SMILES): CN(C)c1nc2ncc(Cl)cc2cc1C#N
- cytotoxicity at 70.5 h: 22%

Structure (SMILES): CCS(=O)(=O)CC(C)N(C)C(=O)COc1ccccc1C#N (configuration not stated)
- cytotoxicity at 70.5 h: -15.4%

Structure (SMILES): COc1ccc(OC)c(-c2csc(-c3cccc(C(=O)O)c3)n2)c1
- cytotoxicity at 70.5 h: -16.7%

Structure (SMILES): CSCc1cc(F)ccc1CNCc1ccncc1
- cytotoxicity at 70.5 h: 4.11%

Structure (SMILES): CC(C)(O)CN1CCN(C(=O)c2cnn(-c3ccccc3F)c2)CC1
- cytotoxicity at 70.5 h: -4.5%

Structure (SMILES): CCc1ncc(C(=O)NCC2CCN(Cc3ccncc3)CC2)cn1
- cytotoxicity at 70.5 h: -5.64%

Structure (SMILES): Cc1cccc(C(=O)N2CCC(c3n[nH]c(C4CC4)n3)CC2)c1
- cytotoxicity at 70.5 h: 20.7%

Structure (SMILES): Cc1noc(CN2CCCC(Cn3nc(C)nc3C)C2)n1 (configuration not stated)
- cytotoxicity at 70.5 h: -6.06%

Structure (SMILES): CN(C)c1nccc(C2CN(C(=O)CO)C2)n1
- cytotoxicity at 70.5 h: -4.15%

Structure (SMILES): CCN(Cc1ccc(C#N)cc1F)C(=O)C(C)(C)C
- cytotoxicity at 70.5 h: -0.767%

Structure (SMILES): Cn1ccnc1-c1ccc(NCc2cn3c(n2)SCC3)nn1
- cytotoxicity at 70.5 h: -1.93%

Structure (SMILES): NC(=O)c1cccc(-c2cnc(C3CCCNC3)cn2)c1 (configuration not stated)
- cytotoxicity at 70.5 h: -7.33%

Structure (SMILES): CC(C)NC(=O)N1CCC2(CC1)C(=O)NCCN2Cc1ccccc1
- cytotoxicity at 70.5 h: -7.72%

Structure (SMILES): Cc1nc(CN2CCN(C(=O)COc3c(C)ccc(C)c3C)CC2)no1
- cytotoxicity at 70.5 h: -4.73%

Structure (SMILES): Cc1cc(N2CCOC(c3ccccn3)C2)nc(N)n1 (configuration not stated)
- cytotoxicity at 70.5 h: -3.03%

Structure (SMILES): Cn1cc(N2CC3(CCN(Cc4cccs4)CC3)OCC2=O)cn1
- cytotoxicity at 70.5 h: -4.87%

Structure (SMILES): CC[C@H](Cn1ncc2ccccc2c1=O)NC(=O)c1ccccn1
- cytotoxicity at 70.5 h: -7.7%

Structure (SMILES): CCc1noc(-c2cccc(C(=O)O)c2)n1
- cytotoxicity at 70.5 h: 23.7%

Structure (SMILES): CCOCCCNC(=O)c1nnn(Cc2ccccc2)c1OC
- cytotoxicity at 70.5 h: -4.93%

Structure (SMILES): Nc1nccnc1C(=O)N1CCN(CCOc2ccccc2)CC1
- cytotoxicity at 70.5 h: 20.7%

Structure (SMILES): CCC(NC(=O)c1ccc(OC)nn1)c1nc(C(F)(F)F)cs1 (configuration not stated)
- cytotoxicity at 70.5 h: -6.03%

Structure (SMILES): CCOc1ccc(CN2CCC(c3[nH]ncc3C)C2)cc1CO (configuration not stated)
- cytotoxicity at 70.5 h: -7.99%

Structure (SMILES): CC(Nc1cccc(CN2CCOC2=O)c1)C(=O)Nc1ccccc1 (configuration not stated)
- cytotoxicity at 70.5 h: -22.1%

Structure (SMILES): CC1(c2ccccc2)CCCN(Cc2cncn2C2CC2)C1 (configuration not stated)
- cytotoxicity at 70.5 h: -8.21%

Structure (SMILES): Cc1noc(CCCC(=O)Nc2cc(C(F)(F)F)c[nH]c2=O)n1
- cytotoxicity at 70.5 h: -3.91%

Structure (SMILES): O=C(c1cnc2ccccc2c1)N1CCC2(CCN2c2ncccn2)C1 (configuration not stated)
- cytotoxicity at 70.5 h: 2.76%

Structure (SMILES): COC(=O)C(C)N(Cc1cc(C)on1)C1CC1 (configuration not stated)
- cytotoxicity at 70.5 h: -5.22%

Structure (SMILES): Cn1nc(C2CCCN(Cc3cc(F)cc(F)c3)C2)c2nccnc21 (configuration not stated)
- cytotoxicity at 70.5 h: -1.82%

Structure (SMILES): CSCc1cc(F)ccc1CNCc1ncc[nH]1
- cytotoxicity at 70.5 h: -8.53%

Structure (SMILES): CCN(CC1CCCN(CCc2cccc(OC)c2)C1)C(=O)CN(C)C (configuration not stated)
- cytotoxicity at 70.5 h: -0.489%

Structure (SMILES): CN1CCC(Cc2noc(-c3cccc(OCC(N)=O)c3)n2)CC1
- cytotoxicity at 70.5 h: 7.49%

Structure (SMILES): CCC(=O)N1CCCN(c2cncc(-n3nc(C)cc3C)n2)CC1
- cytotoxicity at 70.5 h: -4.7%

Structure (SMILES): CC(C)=CCN1C(=O)[C@H]2CC[C@@H]1CN(C(=O)CCc1n[nH]c(C)c1C)C2
- cytotoxicity at 70.5 h: 11.2%

Structure (SMILES): O=C(N1CCCC1)N1CCC[C@]2(C[C@@H](Oc3ncccc3F)CO2)C1
- cytotoxicity at 70.5 h: -4.8%

Structure (SMILES): OCC1CCCN(c2ncnc3c2Cc2ccccc2OC3)C1 (configuration not stated)
- cytotoxicity at 70.5 h: -5.22%

Structure (SMILES): O=C(c1ccc[nH]1)N1CCc2c(COCC3CC3)cncc2C1
- cytotoxicity at 70.5 h: -4.79%

Structure (SMILES): CC1c2ncc(COCc3ccccn3)n2CCN1C1CCCC1 (configuration not stated)
- cytotoxicity at 70.5 h: -2.61%
